# US20110250135A1, “Piperazine Derivatives for Binding and Imaging Amyloid Plaques and Their Use” (Bayer Schering Pharma Aktiengesellschaft, priority 2008, published 2011)
# Legend:
# [1] = Biodistribution: organ distribution of F-18 signal in mice; assay type: in vivo, male NMRI mice; conditions: for Organ distribution of F-18 signal, intestine: intestine (with content); for Organ distribution of F-18 signal, stomach: stomach (without content)
# Description: Biodistribution and excretion studies were performed in male NMRI mice (body weight app. 30g; 3 animals per time point). The animals were kept under normal laboratory conditions at a temperature of 22±2° C. and a dark/light rhythm of 12 hours. Food and water were provided ad libitium. During an acclimation period of at least 3 days before the beginning of the study animals were clinically examined to ascertain the absence of abnormal clinical signs. At 2, 5, 30, 60, 240 min post intravenous injection via the tail vein of ca. 150 kBq in 100 μl of the test compound, urine and feces were quantitatively collected. At the same time points, animals were sacrificed by decapitation and under isoflurane anaesthesia and the following organs and tissues were removed for the determination of radioactivity using a gamma-counter: spleen, liver, kidney, lung, femur, heart, brain, fat, thyroid, muscle, skin, blood, tail, stomach (without content), testicle, intestine (with content), pancreas, adrenals, and the remaining body. For analysis the decay corrected percentage of the injected dose per tissue weight (% ID/g±standard deviation) was calculated.
# Aβ plaques = target: T1, Aβ plaques (Homo sapiens, UniProt P05067); assay: Autoradiographical analysis of binding to cryosections from cortex of AD patients and controls; conditions: F-18 labeled compound; Alzheimer's disease patients (AD) vs controls without Aβ plaques
# T1 construct: controls without Aβ plaques; from tissue; host or cells: frontal lobe / cortex sections (frozen and paraffin) from AD patients, FTD patients and age-matched controls
# T1 sequence (P05067 672-713 limits assumed): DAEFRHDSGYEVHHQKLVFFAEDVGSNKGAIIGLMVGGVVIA
# Excerpt: Fresh frozen as well as paraffin embedded sections of the frontal lobe from Alzheimer's dementia patients, frontotemporal dementia patients and age matched controls were used for the study. Frozen sections, sliced at 18 μm thickness on a cryostate (Leica, Germany) and paraffin sections, sliced on a sliding microtom (Leica) at a thickness of 6 μm, were mounted onto glass slides (Superfrost Plus, Fa.Menzel, Braunschweig Germany). Frozen sections were allowed to adhere to the slides for several nights at −20° C. The paraffin sections were deparaffinized using routine histological methods. For binding studies sections were incubated with the F-18 labeled test compound at 10 Bq/μl diluted in 25 mM Hepes buffer, pH 7.4, 0.1% (BSA) (200-300 μl/slide) for 1.5 hour at room temperature in a humidified chamber. For blocking experiments a 1000-fold access of the unlabeled test substance was added to the incubation mixture. After hybridization, sections were washed four times with Hepes buffer, 0.1% BSA (or alternatively two times with 40% ethanol) and finally dipped two times into dest. water for 10 sec. The air-dried sections were exposed to imaging plates and signals were detected by a phosphoimager device (Fuji BAS5000).
smiles,measurement,setting,value
"O=C(NCC(=O)N1CCN(c2ccc(OCc3ccccc3)cc2)CC1)c1ccnc([18F])c1 [Example 11c, N-{2-[4-(4-Benzyloxy-phenyl)-piperazin-1-yl]-2-oxoethyl}-2-[F-18]-fluoro-isonicotinamide]","Organ distribution of F-18 signal, adrenals",[1]; 2 min post i.v. injection,9.24 % ID/g
same,"Organ distribution of F-18 signal, adrenals",[1]; 5 min post i.v. injection,5.60 % ID/g
same,"Organ distribution of F-18 signal, adrenals",[1]; 30 min post i.v. injection,2.41 % ID/g
same,"Organ distribution of F-18 signal, adrenals",[1]; 60 min post i.v. injection,2.45 % ID/g
same,"Organ distribution of F-18 signal, adrenals",[1]; 240 min post i.v. injection,0.30 % ID/g
same,"Organ distribution of F-18 signal, blood",[1]; 2 min post i.v. injection,1.70 % ID/g
same,"Organ distribution of F-18 signal, blood",[1]; 5 min post i.v. injection,1.78 % ID/g
same,"Organ distribution of F-18 signal, blood",[1]; 30 min post i.v. injection,1.13 % ID/g
same,"Organ distribution of F-18 signal, blood",[1]; 60 min post i.v. injection,0.49 % ID/g
same,"Organ distribution of F-18 signal, blood",[1]; 240 min post i.v. injection,0.12 % ID/g
same,"Organ distribution of F-18 signal, brain",[1]; 2 min post i.v. injection,5.54 % ID/g
same,"Organ distribution of F-18 signal, brain",[1]; 5 min post i.v. injection,4.73 % ID/g
same,"Organ distribution of F-18 signal, brain",[1]; 30 min post i.v. injection,1.00 % ID/g
same,"Organ distribution of F-18 signal, brain",[1]; 60 min post i.v. injection,0.34 % ID/g
same,"Organ distribution of F-18 signal, brain",[1]; 240 min post i.v. injection,0.05 % ID/g
same,"Organ distribution of F-18 signal, fat",[1]; 2 min post i.v. injection,1.52 % ID/g
same,"Organ distribution of F-18 signal, fat",[1]; 5 min post i.v. injection,1.84 % ID/g
same,"Organ distribution of F-18 signal, fat",[1]; 30 min post i.v. injection,1.94 % ID/g
same,"Organ distribution of F-18 signal, fat",[1]; 60 min post i.v. injection,0.80 % ID/g
same,"Organ distribution of F-18 signal, fat",[1]; 240 min post i.v. injection,0.08 % ID/g
same,"Organ distribution of F-18 signal, femur",[1]; 2 min post i.v. injection,1.53 % ID/g
same,"Organ distribution of F-18 signal, femur",[1]; 5 min post i.v. injection,1.54 % ID/g
same,"Organ distribution of F-18 signal, femur",[1]; 30 min post i.v. injection,0.68 % ID/g
same,"Organ distribution of F-18 signal, femur",[1]; 60 min post i.v. injection,0.38 % ID/g
same,"Organ distribution of F-18 signal, femur",[1]; 240 min post i.v. injection,0.16 % ID/g
same,"Organ distribution of F-18 signal, heart",[1]; 2 min post i.v. injection,4.68 % ID/g
same,"Organ distribution of F-18 signal, heart",[1]; 5 min post i.v. injection,4.36 % ID/g
same,"Organ distribution of F-18 signal, heart",[1]; 30 min post i.v. injection,1.54 % ID/g
same,"Organ distribution of F-18 signal, heart",[1]; 60 min post i.v. injection,0.54 % ID/g
same,"Organ distribution of F-18 signal, heart",[1]; 240 min post i.v. injection,0.13 % ID/g
same,"Organ distribution of F-18 signal, intestine",[1]; 2 min post i.v. injection,2.14 % ID/g
same,"Organ distribution of F-18 signal, intestine",[1]; 5 min post i.v. injection,2.66 % ID/g
same,"Organ distribution of F-18 signal, intestine",[1]; 30 min post i.v. injection,10.01 % ID/g
same,"Organ distribution of F-18 signal, intestine",[1]; 60 min post i.v. injection,14.79 % ID/g
same,"Organ distribution of F-18 signal, intestine",[1]; 240 min post i.v. injection,13.00 % ID/g
same,"Organ distribution of F-18 signal, kidney",[1]; 2 min post i.v. injection,7.68 % ID/g
same,"Organ distribution of F-18 signal, kidney",[1]; 5 min post i.v. injection,8.07 % ID/g
same,"Organ distribution of F-18 signal, kidney",[1]; 30 min post i.v. injection,7.83 % ID/g
same,"Organ distribution of F-18 signal, kidney",[1]; 60 min post i.v. injection,4.37 % ID/g
same,"Organ distribution of F-18 signal, kidney",[1]; 240 min post i.v. injection,1.12 % ID/g
same,"Organ distribution of F-18 signal, liver",[1]; 2 min post i.v. injection,7.17 % ID/g
same,"Organ distribution of F-18 signal, liver",[1]; 5 min post i.v. injection,12.14 % ID/g
same,"Organ distribution of F-18 signal, liver",[1]; 30 min post i.v. injection,9.41 % ID/g
same,"Organ distribution of F-18 signal, liver",[1]; 60 min post i.v. injection,4.72 % ID/g
same,"Organ distribution of F-18 signal, liver",[1]; 240 min post i.v. injection,2.09 % ID/g
same,"Organ distribution of F-18 signal, lung",[1]; 2 min post i.v. injection,4.14 % ID/g
same,"Organ distribution of F-18 signal, lung",[1]; 5 min post i.v. injection,3.76 % ID/g
same,"Organ distribution of F-18 signal, lung",[1]; 30 min post i.v. injection,1.65 % ID/g
same,"Organ distribution of F-18 signal, lung",[1]; 60 min post i.v. injection,0.69 % ID/g
same,"Organ distribution of F-18 signal, lung",[1]; 240 min post i.v. injection,0.31 % ID/g
same,"Organ distribution of F-18 signal, muscle",[1]; 2 min post i.v. injection,2.38 % ID/g
same,"Organ distribution of F-18 signal, muscle",[1]; 5 min post i.v. injection,2.54 % ID/g
same,"Organ distribution of F-18 signal, muscle",[1]; 30 min post i.v. injection,1.03 % ID/g
same,"Organ distribution of F-18 signal, muscle",[1]; 60 min post i.v. injection,0.38 % ID/g
same,"Organ distribution of F-18 signal, muscle",[1]; 240 min post i.v. injection,0.07 % ID/g
same,"Organ distribution of F-18 signal, pancreas",[1]; 2 min post i.v. injection,4.44 % ID/g
same,"Organ distribution of F-18 signal, pancreas",[1]; 5 min post i.v. injection,3.97 % ID/g
same,"Organ distribution of F-18 signal, pancreas",[1]; 30 min post i.v. injection,2.20 % ID/g
same,"Organ distribution of F-18 signal, pancreas",[1]; 60 min post i.v. injection,0.77 % ID/g
same,"Organ distribution of F-18 signal, pancreas",[1]; 240 min post i.v. injection,0.18 % ID/g
same,"Organ distribution of F-18 signal, skin",[1]; 2 min post i.v. injection,1.22 % ID/g
same,"Organ distribution of F-18 signal, skin",[1]; 5 min post i.v. injection,1.80 % ID/g
same,"Organ distribution of F-18 signal, skin",[1]; 30 min post i.v. injection,1.43 % ID/g
same,"Organ distribution of F-18 signal, skin",[1]; 60 min post i.v. injection,0.66 % ID/g
same,"Organ distribution of F-18 signal, skin",[1]; 240 min post i.v. injection,0.10 % ID/g
same,"Organ distribution of F-18 signal, spleen",[1]; 2 min post i.v. injection,1.47 % ID/g
same,"Organ distribution of F-18 signal, spleen",[1]; 5 min post i.v. injection,2.01 % ID/g
same,"Organ distribution of F-18 signal, spleen",[1]; 30 min post i.v. injection,0.93 % ID/g
same,"Organ distribution of F-18 signal, spleen",[1]; 60 min post i.v. injection,0.37 % ID/g
same,"Organ distribution of F-18 signal, spleen",[1]; 240 min post i.v. injection,0.09 % ID/g
same,"Organ distribution of F-18 signal, stomach",[1]; 2 min post i.v. injection,3.46 % ID/g
same,"Organ distribution of F-18 signal, stomach",[1]; 5 min post i.v. injection,3.07 % ID/g
same,"Organ distribution of F-18 signal, stomach",[1]; 30 min post i.v. injection,3.10 % ID/g
same,"Organ distribution of F-18 signal, stomach",[1]; 60 min post i.v. injection,1.13 % ID/g
same,"Organ distribution of F-18 signal, stomach",[1]; 240 min post i.v. injection,0.34 % ID/g
same,"Organ distribution of F-18 signal, tail",[1]; 2 min post i.v. injection,8.55 % ID/g
same,"Organ distribution of F-18 signal, tail",[1]; 5 min post i.v. injection,5.41 % ID/g
same,"Organ distribution of F-18 signal, tail",[1]; 30 min post i.v. injection,3.21 % ID/g
same,"Organ distribution of F-18 signal, tail",[1]; 60 min post i.v. injection,0.87 % ID/g
same,"Organ distribution of F-18 signal, tail",[1]; 240 min post i.v. injection,0.39 % ID/g
same,"Organ distribution of F-18 signal, testicle",[1]; 2 min post i.v. injection,1.36 % ID/g
same,"Organ distribution of F-18 signal, testicle",[1]; 5 min post i.v. injection,1.70 % ID/g
same,"Organ distribution of F-18 signal, testicle",[1]; 30 min post i.v. injection,1.13 % ID/g
same,"Organ distribution of F-18 signal, testicle",[1]; 60 min post i.v. injection,0.65 % ID/g
same,"Organ distribution of F-18 signal, testicle",[1]; 240 min post i.v. injection,0.15 % ID/g
same,"Organ distribution of F-18 signal, thyroid",[1]; 2 min post i.v. injection,3.11 % ID/g
same,"Organ distribution of F-18 signal, thyroid",[1]; 5 min post i.v. injection,2.41 % ID/g
same,"Organ distribution of F-18 signal, thyroid",[1]; 30 min post i.v. injection,1.08 % ID/g
same,"Organ distribution of F-18 signal, thyroid",[1]; 60 min post i.v. injection,0.50 % ID/g
same,"Organ distribution of F-18 signal, thyroid",[1]; 240 min post i.v. injection,0.19 % ID/g
same,autoradiographical analysis of binding to cryosections from cortex,Aβ plaques,Specific binding in plaque-rich regions of AD samples
